What was measured:
Salmonella typhimurium [1] = experiment: Mutagenicity in Salmonella typhimurium TA102 assessed as mutagenicity index at 700.00 uM/plate incubated for 90 mins at 37 degC in absence of liver S9 fractions by Ames test relative to untreated control; format: toxicity, organism-based; conditions: salmonella enterica subsp. enterica serovar typhimurium, 1.5 h
Salmonella typhimurium [2] = experiment: Mutagenicity in Salmonella typhimurium TA102 assessed as mutagenicity index at 150.98 uM/plate incubated for 90 mins at 37 degC in absence of liver S9 fractions by Ames test relative to untreated control; format: toxicity, organism-based; conditions: salmonella enterica subsp. enterica serovar typhimurium, 1.5 h
Salmonella typhimurium [3] = experiment: Mutagenicity in Salmonella typhimurium TA100 assessed as mutagenicity index at 700.00 uM/plate incubated for 90 mins at 37 degC in presence of liver S9 fractions by Ames test relative to untreated control; format: toxicity, organism-based; conditions: salmonella enterica subsp. enterica serovar typhimurium, s9, 1.5 h
Salmonella typhimurium [4] = experiment: Mutagenicity in Salmonella typhimurium TA98 assessed as mutagenicity index at 435.85 uM/plate incubated for 90 mins at 37 degC in presence of liver S9 fractions by Ames test relative to untreated control; format: toxicity, organism-based; conditions: salmonella enterica subsp. enterica serovar typhimurium, s9, 1.5 h
Salmonella typhimurium [5] = experiment: Mutagenicity in Salmonella typhimurium TA100 assessed as mutagenicity index at 435.85 uM/plate incubated for 90 mins at 37 degC in presence of liver S9 fractions by Ames test relative to untreated control; format: toxicity, organism-based; conditions: salmonella enterica subsp. enterica serovar typhimurium, s9, 1.5 h
Salmonella typhimurium [6] = experiment: Mutagenicity in Salmonella typhimurium TA100 assessed as mutagenicity index at 296.15 uM/plate incubated for 90 mins at 37 degC in presence of liver S9 fractions by Ames test relative to untreated control; format: toxicity, organism-based; conditions: salmonella enterica subsp. enterica serovar typhimurium, s9, 1.5 h
[7] = Mutagenicity in CHOK1 cells assessed as induction of chromosomal DNA mutation by measuring nuclear division index level at 6.41 to 25.63 incubated for 3 hrs by fluorescence microscopy; format: toxicity, cell-based, Cricetulus griseus; conditions: chinese hamster, cho-k1, 3 h
Salmonella typhimurium [8] = experiment: Mutagenicity in Salmonella typhimurium TA97a assessed as mutagenicity index at 570.37 uM/plate incubated for 90 mins at 37 degC in absence of liver S9 fractions by Ames test relative to untreated control; format: toxicity, organism-based; conditions: salmonella enterica subsp. enterica serovar typhimurium, 1.5 h
Salmonella typhimurium [9] = experiment: Mutagenicity in Salmonella typhimurium TA98 assessed as mutagenicity index at 700.00 uM/plate incubated for 90 mins at 37 degC in absence of liver S9 fractions by Ames test relative to untreated control; format: toxicity, organism-based; conditions: salmonella enterica subsp. enterica serovar typhimurium, 1.5 h
Salmonella typhimurium [10] = experiment: Mutagenicity in Salmonella typhimurium TA102 assessed as mutagenicity index at 435.85 uM/plate incubated for 90 mins at 37 degC in absence of liver S9 fractions by Ames test relative to untreated control; format: toxicity, organism-based; conditions: salmonella enterica subsp. enterica serovar typhimurium, 1.5 h
Salmonella typhimurium [11] = experiment: Mutagenicity in Salmonella typhimurium TA100 assessed as mutagenicity index at 700.00 uM/plate incubated for 90 mins at 37 degC in absence of liver S9 fractions by Ames test relative to untreated control; format: toxicity, organism-based; conditions: salmonella enterica subsp. enterica serovar typhimurium, 1.5 h
Salmonella typhimurium [12] = experiment: Mutagenicity in Salmonella typhimurium TA100 assessed as mutagenicity index at 150.98 uM/plate incubated for 90 mins at 37 degC in presence of liver S9 fractions by Ames test relative to untreated control; format: toxicity, organism-based; conditions: salmonella enterica subsp. enterica serovar typhimurium, s9, 1.5 h
Salmonella typhimurium [13] = experiment: Mutagenicity in Salmonella typhimurium TA98 assessed as mutagenicity index at 435.85 uM/plate incubated for 90 mins at 37 degC in absence of liver S9 fractions by Ames test relative to untreated control; format: toxicity, organism-based; conditions: salmonella enterica subsp. enterica serovar typhimurium, 1.5 h
Salmonella typhimurium [14] = experiment: Mutagenicity in Salmonella typhimurium TA98 assessed as mutagenicity index at 570.37 uM/plate incubated for 90 mins at 37 degC in presence of liver S9 fractions by Ames test relative to untreated control; format: toxicity, organism-based; conditions: salmonella enterica subsp. enterica serovar typhimurium, s9, 1.5 h
Salmonella typhimurium [15] = experiment: Mutagenicity in Salmonella typhimurium TA102 assessed as mutagenicity index at 313.73 uM/plate incubated for 90 mins at 37 degC in absence of liver S9 fractions by Ames test relative to control; format: toxicity, organism-based; conditions: salmonella enterica subsp. enterica serovar typhimurium, 1.5 h
Salmonella typhimurium [16] = experiment: Mutagenicity in Salmonella typhimurium TA100 assessed as mutagenicity index at 313.73 uM/plate incubated for 90 mins at 37 degC in presence of liver S9 fractions by Ames test relative to control; format: toxicity, organism-based; conditions: salmonella enterica subsp. enterica serovar typhimurium, s9, 1.5 h
Salmonella typhimurium [17] = experiment: Mutagenicity in Salmonella typhimurium TA98 assessed as mutagenicity index at 1454.55 uM/plate incubated for 90 mins at 37 degC in presence of liver S9 fractions by Ames test relative to control; format: toxicity, organism-based; conditions: salmonella enterica subsp. enterica serovar typhimurium, s9, 1.5 h
Salmonella typhimurium [18] = experiment: Mutagenicity in Salmonella typhimurium TA97a assessed as mutagenicity index at 616.38 uM/plate incubated for 90 mins at 37 degC in absence of liver S9 fractions by Ames test relative to control; format: toxicity, organism-based; conditions: salmonella enterica subsp. enterica serovar typhimurium, 1.5 h
Salmonella typhimurium [19] = experiment: Mutagenicity in Salmonella typhimurium TA100 assessed as mutagenicity index at 905.66 uM/plate incubated for 90 mins at 37 degC in absence of liver S9 fractions by Ames test relative to control; format: toxicity, organism-based; conditions: salmonella enterica subsp. enterica serovar typhimurium, 1.5 h
Salmonella typhimurium [20] = experiment: Mutagenicity in Salmonella typhimurium TA98 assessed as mutagenicity index at 616.38 uM/plate incubated for 90 mins at 37 degC in presence of liver S9 fractions by Ames test relative to control; format: toxicity, organism-based; conditions: salmonella enterica subsp. enterica serovar typhimurium, s9, 1.5 h
Salmonella typhimurium [21] = experiment: Mutagenicity in Salmonella typhimurium TA97a assessed as mutagenicity index at 1454.55 uM/plate incubated for 90 mins at 37 degC in presence of liver S9 fractions by Ames test relative to control; format: toxicity, organism-based; conditions: salmonella enterica subsp. enterica serovar typhimurium, s9, 1.5 h
Salmonella typhimurium [22] = experiment: Mutagenicity in Salmonella typhimurium TA97a assessed as mutagenicity index at 905.66 uM/plate incubated for 90 mins at 37 degC in absence of liver S9 fractions by Ames test relative to control; format: toxicity, organism-based; conditions: salmonella enterica subsp. enterica serovar typhimurium, 1.5 h
Salmonella typhimurium [23] = experiment: Mutagenicity in Salmonella typhimurium TA97a assessed as mutagenicity index at 1454.55 uM/plate incubated for 90 mins at 37 degC in absence of liver S9 fractions by Ames test relative to control; format: toxicity, organism-based; conditions: salmonella enterica subsp. enterica serovar typhimurium, 1.5 h
Salmonella typhimurium [24] = experiment: Mutagenicity in Salmonella typhimurium TA98 assessed as mutagenicity index at 616.38 uM/plate incubated for 90 mins at 37 degC in absence of liver S9 fractions by Ames test relative to control; format: toxicity, organism-based; conditions: salmonella enterica subsp. enterica serovar typhimurium, 1.5 h
Salmonella typhimurium [25] = experiment: Mutagenicity in Salmonella typhimurium TA102 assessed as mutagenicity index at 1185.19 uM/plate incubated for 90 mins at 37 degC in presence of liver S9 fractions by Ames test relative to control; format: toxicity, organism-based; conditions: salmonella enterica subsp. enterica serovar typhimurium, s9, 1.5 h
Salmonella typhimurium [26] = experiment: Mutagenicity in Salmonella typhimurium TA102 assessed as mutagenicity index at 905.66 uM/plate incubated for 90 mins at 37 degC in presence of liver S9 fractions by Ames test relative to control; format: toxicity, organism-based; conditions: salmonella enterica subsp. enterica serovar typhimurium, s9, 1.5 h
Salmonella typhimurium [27] = experiment: Mutagenicity in Salmonella typhimurium TA102 assessed as mutagenicity index at 616.38 uM/plate incubated for 90 mins at 37 degC in absence of liver S9 fractions by Ames test relative to control; format: toxicity, organism-based; conditions: salmonella enterica subsp. enterica serovar typhimurium, 1.5 h
Salmonella typhimurium [28] = experiment: Mutagenicity in Salmonella typhimurium TA98 assessed as mutagenicity index at 1185.19 uM/plate incubated for 90 mins at 37 degC in presence of liver S9 fractions by Ames test relative to control; format: toxicity, organism-based; conditions: salmonella enterica subsp. enterica serovar typhimurium, s9, 1.5 h
Salmonella typhimurium [29] = experiment: Mutagenicity in Salmonella typhimurium TA98 assessed as mutagenicity index at 1185.19 uM/plate incubated for 90 mins at 37 degC in absence of liver S9 fractions by Ames test relative to control; format: toxicity, organism-based; conditions: salmonella enterica subsp. enterica serovar typhimurium, 1.5 h
Salmonella typhimurium [30] = experiment: Mutagenicity in Salmonella typhimurium TA102 assessed as mutagenicity index at 1454.55 uM/plate incubated for 90 mins at 37 degC in presence of liver S9 fractions by Ames test relative to control; format: toxicity, organism-based; conditions: salmonella enterica subsp. enterica serovar typhimurium, s9, 1.5 h
Salmonella typhimurium [31] = experiment: Mutagenicity in Salmonella typhimurium TA97a assessed as mutagenicity index at 616.38 uM/plate incubated for 90 mins at 37 degC in presence of liver S9 fractions by Ames test relative to control; format: toxicity, organism-based; conditions: salmonella enterica subsp. enterica serovar typhimurium, s9, 1.5 h

## CS(=O)(=O)OCCCCCCCCCCCCn1cc(CCCO)nn1
Salmonella typhimurium [1]
  Activity_index: 1
Salmonella typhimurium [2]
  Activity_index: 1.1
Salmonella typhimurium [3]
  Activity_index: 0.9
Salmonella typhimurium [4]
  Activity_index: 1.1
Salmonella typhimurium [5]
  Activity_index: 0.7
Salmonella typhimurium [6]
  Activity_index: 0.9
[7]
  Activity: Non-toxic
Salmonella typhimurium [8]
  Activity_index: 0.9
Salmonella typhimurium [9]
  Activity_index: 1.3
Salmonella typhimurium [10]
  Activity_index: 0.9
Salmonella typhimurium [11]
  Activity_index: 1
Salmonella typhimurium [12]
  Activity_index: 0.9
Salmonella typhimurium [13]
  Activity_index: 1.1
Salmonella typhimurium [14]
  Activity_index: 0.8

## CCOC(=O)c1cn(CCCCCCCCCOS(C)(=O)=O)nn1
Salmonella typhimurium [15]
  Activity_index: 1.2
Salmonella typhimurium [16]
  Activity_index: 0.9
Salmonella typhimurium [17]
  Activity_index: 0.8
Salmonella typhimurium [18]
  Activity_index: 1.6
Salmonella typhimurium [19]
  Activity_index: 1.2
Salmonella typhimurium [20]
  Activity_index: 0.8
Salmonella typhimurium [21]
  Activity_index: 0.8
Salmonella typhimurium [22]
  Activity_index: 1.8
Salmonella typhimurium [23]
  Activity_index: 1.4
Salmonella typhimurium [24]
  Activity_index: 1.2
Salmonella typhimurium [25]
  Activity_index: 1.4
Salmonella typhimurium [26]
  Activity_index: 1.3
Salmonella typhimurium [27]
  Activity_index: 1.1
Salmonella typhimurium [28]
  Activity_index: 0.8
Salmonella typhimurium [29]
  Activity_index: 1.5
Salmonella typhimurium [30]
  Activity_index: 1.2
Salmonella typhimurium [31]
  Activity_index: 0.9
